“Also recorded” adds a separate entry of the source.
B1: Serp-1: secreted myxomavirus-derived serine protease inhibitor (serpin), purified protein, SEQ ID NO: 1 (protein)
chain: MKYLVLVLCLTSCACRDIGLWTFRYVYNESDNVVFSPYGLTSALSVLRIAAGGNTKREIDVPESVVEDSDAFLALRELFVDASVPLRPEFTAEFSSRFNTSVQRVTFNSENVKDVINSYVKDKTGGDVPRVLDASLDRDTKMLLLSSVRMKTSWRHVFDPSFTTDQPFYSGNVTYKVRMMNKIDTLKTETFTLRNVGYSVTELPYKRRQTAMLLVVPDDLGEIVRALDLSLVRFWIRNMRKDVCQVVMPKFSVESVLDLRDALQRLGVRDAFDPSRADFGQASPSNDLYVTKVLQTSKIEADERGTTASSDTAITLIPRNALTAIVANKPFMFLIYHKPTTTVLFMGTIT
modifications: Serp-1 recombinant polypeptide

What was measured:
MHV-68 [1] = assay: Survival after lethal intraperitoneal MHV-68 infection of IFNγR−/− mice; format: in vivo; conditions: for survival after MHV-68 infection (modified S-7 peptides): MHV-68 infection model; for survival at 150 days: 100 ng/g IP injections for 30 days, no antibiotics, MHV-68 infected IFNγR−/− mice; for median survival: 10 days antibiotic pre-treatment, then MHV-68 infection and 30 days IP treatment; for efficacy after antibiotic treatment versus saline treatment after antibiotics: +Abx vs Saline+Abx, survival
Excerpt: Animals. IFNγR^−/− mice (B6.129S7-Ifngr1^tm1Agt/J) were purchased from the Jackson Laboratory (Bar Harbor, ME, USA). Animals were housed in barrier conditions at the University of Florida Animal Care Services vivarium and bred under specific pathogen-free conditions. Mice were weaned at 3 weeks, maintained on a 12-hour light-dark cycle and were fed water and standard rodent chow ad libitum.
Antibiotic treatment. At 4 weeks of age, IFNγR^−/− mouse cohorts were transferred from the ABSL1 colony to a separate, ABSL2 colony. Gut microbiome suppression was achieved by replacing standard drinking water with autoclaved reverse osmosis water (obtained from the same animal care facility) containing an antibiotic cocktail (Table 1) composed of Streptomycin (2 g/L), Gentamicin (0.5 g/L), Bacitracin (1 g/L) and Ciprofloxacin (0.125 g/L) for 10 days. One day (24 hours) prior to infection, medicated water was replaced with standard animal care facility water, which was maintained for the remainder of the experiment.
MHV-68 infection. On day 11 (after 10 days of antibiotics) mice (5 weeks old) were infected with MHV-68 at a dose of 12.5×10^6 PFU in 0.1 mL DMEM by intraperitoneal (IP) injection as previously described22,25,27,30. Mice were returned to the colony and monitored for signs of distress for the duration of the experiment. Mice were either followed for 150 days to determine survival or euthanized at 3 days post-infection and organs harvested into formalin for histology or RNAlater (Thermo Scientific, USA) for microbiome analyses. Details on the numbers of MHV-68-infected mice in this study are detailed in Table 2.
Statistical analysis. Survival and pathology statistics were analyzed with GraphPad Prism v8.0.1. Kaplan-Meier survival statistics were calculated using Log-rank (Mantel-Cox) testing. For visualization, individual comparison curves are presented. Lung pathology statistics were compared using a Two-Way ANOVA with a Fisher's LSD or Tukey's post-hoc test. Bars are mean±standard error. P-value less than 0.05 was considered significant. *p<0.05, **p<0.01, ***p<0.001, ****p<0.0001; n.s. is not significant.
MHV-68 infections establish latency with chronic infection in wildtype mice, causing only flu-like symptoms. Conversely, intraperitoneal infection of mice with underlying immune deficiency, as for IFNγR^−/− mice, results in a lethal large vessel vasculitis, colitis and hemorrhagic pneumonia with early mortality. Intranasal infection, an alternative model for MHV-68, is not a model for severe vasculitic syndromes. This intraperitoneal infection model of vasculitis has been used to study the pathogenesis of gammaherpesvirus host-pathogen interactions, as well as to investigate the potential for anti-inflammatory treatment of associated inflammatory vasculitic syndromes. Intraperitoneal infection of IFNγR−/− mice with 12.5×10^6 pfu was performed with follow-up for 150 days to determine survival rates. MHV-68 infection with administration of control saline treatment alone for 30 days was lethal, with a median survival of 41 days. […] Thus, Serp-1 and S-7 protect IFNγR−/− mice after lethal MHV-68 infection.
The potential for dependence of Serp-1 and S-7 therapeutic efficacy on the gut bacterial microbiome in MHV-68 infected IFNγR^−/− mice was investigated. Mice were treated with medicated drinking water (Table 1) for 10 days, placed on normal water for 24 hours, then infected with MHV-68 and concurrently treated for 30 days with either Serp-1 or S-7 by IP injection. Mice were followed for survival or 3-day follow-up (FIG. 2A).

MHV-68 [2] = assay: MHV-68 antigen immunostaining in lungs at 3 days after infection; format: in vivo, mice; conditions: for MHV-68 antigen levels in the lungs: without antibiotic treatment, 3-day follow-up
Protocol: (§1) Immunohistochemistry. FFPE blocks containing lung tissue were sectioned into 4-6 μm ribbons, captured on charged glass and dried overnight at 37° C. prior to processing. Slides were rehydrated and epitopes retrieved by boiling in sodium citrated buffer. Endogenous peroxidases were quenched with 3% hydrogen peroxide, slides were blocked in 5% bovine serum albumin in TBS/0.1% Tween 20 and sections were probed with rabbit polyclonal antibody against CD3 (Abcam ab5690; 1:200), CD4 (Abcam ab183685; 1:1000) or CD8 (Abcam ab209775; 1:2000). For MHV-68 detection, 1:500 rabbit anti-serum or pre-immune serum (as control) were used for immunostaining (kind gift of Dr. H. W. Virgin 1119). 1:500 goat anti-rabbit HRP was used for secondary staining (Jackson Immuno Research 111-035-144). […] Sections were imaged with a 40×/0.75NA objective.

[3] = system: CD3+, CD4+ and CD8+ cells in the lungs; assay: Immunohistochemistry of CD3+, CD4+, CD8+ cells in lungs at 3 days after MHV-68 infection; format: in vivo, mice; conditions: for CD3 infiltration-promoting effect and CD8 bias after antibiotic treatment: after antibiotic depletion of gut microbiome; for CD8+ staining in lungs / detectable CD3+ cells in the lungs / pulmonary CD4+ cells: no antibiotics, 3-day follow-up
Protocol: as §1

MHV-68 [4] = assay: Lung histopathology and quantitative morphometry at 3 days after MHV-68 infection; format: in vivo, mice; conditions: for severe pulmonary pathology (consolidation and inflammation): absence of antibiotics, vs saline; for severe pulmonary pathology (consolidation and inflammation) / early lung pathology after antibiotic treatment: 3-day follow-up; for alveolar wall thickness: no antibiotics, versus saline-treated controls; for alveolar lumen area: without antibiotic pre-treatment, compared to saline-treated controls
Protocol: Histopathology. Mice were euthanized at 3 days follow-up after infection by carbon dioxide asphyxiation followed by cervical dislocation. Organs were harvested and fixed in 10% neutral buffered formalin. Samples were dehydrated through graded alcohol, paraffin-embedded, sectioned into 4-6 μm ribbons, captured on charged glass and dried overnight at 37° C. prior to processing for histopathology. Slides were rehydrated, stained with Gill's hematoxylin No. 3 and Eosin Y (H&E) according to standard procedure, dehydrated and mounted in Cytoseal XYL (Thermo Fisher Scientific, USA).
Quantitative morphometry. H&E-stained aorta, lung and colon sections were imaged with a 20×/0.5NA objective on an Olympus BX51 microscope equipped with an Olympus DP74 camera operated by cellSens Dimensions v1.16 software. Objective-calibrated measurements of alveolar septal thickness and lumen area were collected using cellSens Dimensions. At least 50 measurements were collected and averaged for each mouse, and at least three mice were examined for each group. Images were processed for visualization in figures using ImageJ/FIJI v1.52i92.

uPA = uPA (Homo sapiens, UniProt P00749); assay: In vitro uPA substrate conversion assay; format: biochemical; conditions: presence of the antibiotic cocktail

| Molecule | survival after MHV-68 infection (modified S-7 peptides) (MHV-68 [1]) | decrease in detectable MHV68 after antibiotic pre-treatment (MHV-68 [2]) | MHV-68 antigen levels in the lungs (MHV-68 [2]) | survival at 150 days (MHV-68 [1]) [%] | median survival (MHV-68 [1]) [days] | efficacy after antibiotic treatment versus saline treatment after antibiotics (MHV-68 [1]) | CD3 infiltration-promoting effect and CD8 bias after antibiotic treatment [3] | CD8+ staining in lungs [3] | detectable CD3+ cells in the lungs [3] | pulmonary CD4+ cells [3] | severe pulmonary pathology (consolidation and inflammation) (MHV-68 [4]) | early lung pathology after antibiotic treatment (MHV-68 [4]) | alveolar lumen area protection after antibiotic treatment (MHV-68 [4]; after antibiotics) | reduction in alveolar wall thickness after treatment with antibiotics (MHV-68 [4]; after antibiotics) | alveolar wall thickness (MHV-68 [4]) | alveolar lumen area (MHV-68 [4]) | inhibition of uPA activity in presence of broad-spectrum antibiotic cocktail (uPA) |
| --- | --- | --- | --- | --- | --- | --- | --- | --- | --- | --- | --- | --- | --- | --- | --- | --- | --- |
| GTTASSDTAITDEPR (Modified S7 peptide MPS7-9) | improved survival |  |  |  |  |  |  |  |  |  |  |  |  |  |  |  |  |
| GTTASSDTAITLEPR (Modified S-7 peptide MPS7-8) | improved survival |  |  |  |  |  |  |  |  |  |  |  |  |  |  |  |  |
| GTTASSDTAITLIPR (Reactive Center Loop Polypeptide sequence of for a serine protease inhibitor) [S-7] |  | partially reversed | significantly reduced | 60 | 18 | not significantly different | loss | significant increases | significantly increased | no appreciable effect | considerably reduced | markedly worse | nullified any level of protection | lost | significant reduction | significantly increased |  |
| B1 |  | partially reversed | significantly reduced | 60 | 19 | not significantly different | loss | strong trend towards increase | trended towards increasing | no appreciable effect | considerably reduced | markedly worse |  | lost | significant reduction | trend toward an increase | unaffected; also recorded: not affected |

Reference: patent publication US12029777B2, “Serine proteinase inhibitors: Serp-1 and Serp-1 RCL-derived peptides effect on microbiome composition and uses thereof” (ARIZONA BOARD OF REGENTS ON BEHALF OF ARIZONA STATE …, priority 2019, dated 2024)
